# According to patent US20260083750A1, “SMALL MOLECULE INHIBITORS OF KRAS PROTEINS” (MERCK SHARP & DOHME LLC, priority 2022, published 2026):
# Key:
# [1] = molecular target: T1, KRAS G12D (amino acids 1-169) (Homo sapiens, UniProt P01116, G12D); assay: SOS-catalyzed nucleotide exchange assay (Procedure B, BODIPY FL GDP displacement); type: biochemical; details: Procedure B (Example Nos. 18, 21, 23, 33-34); 1 hour incubation, SOS1 + GMPPNP; read-out: KRAS G12D GNE IC50
# T1 construct: made in house; host or cells: E. coli
# Experimental: (§1) Procedure for SOS-Catalyzed Nucleotide Exchange Assay for KRAS-G12C/D/V (Procedure B)
# (§2) Recombinant KRAS G12C (amino acids 1-169, SEQ ID NO:8), KRAS G12D (amino acids 1-169, SEQ ID NO:9), KRAS G12V (amino acids 1-169, SEQ ID NO:10) and SOS1 (amino acids 564-1049, SEQ ID NO:11) proteins were expressed in E. coli and purified by affinity chromatography. To prepare each BODIPY™ FL GDP-bound KRAS mutant protein, 50 μM KRAS mutant proteins were incubated with 0.5 mM BODIPY™ FL GDP (Invitrogen, G22360) in a loading buffer (20 mM Tris-HCl pH 7.5, 50 mM NaCl, 1 mM DTT and 2.5 mM EDTA) for 1 hour on ice. After the incubation, MgCl2 was added to a final concentration of 10 mM, followed by an incubation at room temperature for 30 minutes. The mixtures were allowed to pass through a NAP-5 column to remove free nucleotides and purified BODIPY™ FL GDP-bound KRAS G12C, G12D and G12V proteins were used for compound evaluation.
# (§3) The inhibitory activity of compounds on recombinant KRAS mutants is measured by the displacement of the bound BODIPY™ GDP. Specifically, 2.5 nM of each BODIPY™ FL GDP-bound KRAS mutant complex was incubated with various concentrations of compound in a reaction buffer (20 mM Tris-HCl pH 7.5, 100 mM NaCl, 1 mM MgCl2, 2 mM DTT, 0.1% Tween 20) at 25° C. for 1 hour. After the incubation, recombinant SOS1 and GMPPNP (Jena Bioscience GmbH, NU-401) were added and incubated at room temperature for 30 minutes to proceed SOS1-dependent GDP-GTP exchange reaction on KRAS mutants. Displacement of BODIPY™ FL GDP by Guanosine-5′-[(β,γ)-imido]triphosphate, Tetralithium salt (GMPPNP) was measured by calculating the ratio of fluorescence intensities of BODIPY™ FL before and after the exchange reaction. […] Dose response curves were analyzed using a 4-parameter logistic model to calculate IC50 values.
# (§4) For Example Nos. 1-17, 19-20, 22, 24-32, and 35-53 nucleotide exchange assays for KRAS G12D, G12C, G12V, and G13D were performed according to Procedure A. For Example Nos. 18, 21, 23, and 33-34, nucleotide exchange assays for KRAS G12D, G12C, and G12V were performed according to Procedure B.
# [2] = molecular target: T2, KRAS G12V (amino acids 1-169) (Homo sapiens, UniProt P01116, G12V); assay: as above; type: biochemical; details: Procedure B (Example Nos. 18, 21, 23, 33-34); 1 hour incubation, SOS1 + GMPPNP; read-out: KRAS G12V GNE IC50
# T2 construct: made in house; host or cells: E. coli
# Experimental: as §1, §2, §3, §4
# [3] = molecular target: T3, KRAS G12C (amino acids 1-169) (Homo sapiens, UniProt P01116, G12C); assay: as above; type: biochemical; details: Procedure B (Example Nos. 18, 21, 23, 33-34); 1 hour incubation, SOS1 + GMPPNP; read-out: KRAS G12C GNE IC50
# T3 construct: made in house; host or cells: E. coli
# Experimental: as §1, §2, §3, §4
# [4] = tested on: PANC08.13 cells (homozygous KRAS-G12D activating mutation); assay: Cellular phospho-ERK assay in G12D cell line; type: cell-based; details: Homo sapiens, PANC-08-13, 2 hours compound incubation, ratio of p-ERK vs. total ERK, read-out: PANC 0813 pERK IC50
# In short: (§5)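 Cells (10,000-15,000/well) were seeded overnight, then treated for 2 h at 37 °C with a 10-point 1:3 titration from 30 μM final. Lysates were assayed by AlphaLISA SureFire Ultra multiplex, with the p-ERK/total-ERK ratio as read-out; IC50 came from a 4-parameter logistic fit.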
# KRAS-G12V = molecular target: T4, KRAS-G12V (Homo sapiens, UniProt P01116, G12V); assay: SOS-catalyzed nucleotide exchange assay (Procedure A, TR-FRET); type: biochemical; details: 60 min preincubation, SOS + GTP, read-out: KRAS G12V GNE IC50
# T4 construct: N-terminal biotin-acceptor peptide […]
# In short: (§6)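 Preformed biotinylated RAS–Bodipy-GDP/Tb-streptavidin complex preincubated with compound 60 min at room temperature, then SOS plus GTP (3 mM final) added. Exchange times: G13D 30 min, G12C/D 60 min, G12V 90 min. Final RAS/SOS: G12C 3 nM/40 nM, G12D 1 nM/40 nM, G12V 1.25 nM/160 nM, G13D 1.25 nM/0 nM. TR-FRET 520/495 ratio, four-parameter fit.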
# KRAS-G13D = molecular target: T5, KRAS-G13D (Homo sapiens, UniProt P01116, G13D); assay: as above; type: biochemical; details: 60 min preincubation, GTP, read-out: KRAS G13D GNE IC50
# T5 construct: N-terminal biotin-acceptor peptide […]
# In short: as §6
# KRAS-G12D = molecular target: T6, KRAS-G12D (Homo sapiens, UniProt P01116, G12D); assay: as above; type: biochemical; details: 60 min preincubation, SOS + GTP, read-out: KRAS G12D GNE IC50
# T6 construct: N-terminal biotin-acceptor peptide […]
# In short: as §6
# [5] = molecular target: T7, KRAS-G12C (C51S/C80L/C118S) (Homo sapiens, UniProt P01116, C118S/C51S/C80L/G12C); assay: as above; type: biochemical; details: 60 min preincubation, SOS + GTP, read-out: KRAS G12C GNE IC50
# T7 construct: N-terminal biotin-acceptor peptide […]
# In short: as §6
# [6] = tested on: SW620 cells (homozygous KRAS-G12V activating mutation); assay: Cellular phospho-ERK assay in G12V cell line; type: cell-based; details: Homo sapiens, SW-620, 2 hours compound incubation, ratio of p-ERK vs. total ERK, read-out: SW620 pERK IC50
# In short: as §5
# NRAS = NRAS (Homo sapiens, UniProt P01111); assay: SOS-catalyzed nucleotide exchange assay (Procedure A, TR-FRET); type: biochemical; details: 60 min preincubation, SOS + GTP, read-out: NRAS GNE IC50
# In short: (§7)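 Biotinylated WT-sequence HRAS or NRAS (1.25 nM final) loaded with Bodipy-GDP plus Tb-streptavidin, preincubated 60 min with compound (10-point, 3-fold). Exchange started with human SOS (40 nM) and 3 mM GTP, 60 min at room temperature, pH 7.5 Mg buffer. TR-FRET 520/495 ratio normalised to DMSO and saturating inhibitor, four-parameter fit.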
# HRAS = HRAS (Homo sapiens, UniProt P01112); assay: as above; type: biochemical; details: 60 min preincubation, SOS + GTP, read-out: HRAS GNE IC50
# In short: as §7
# T2 sequence (P01116 with tags, fused parts or gaps isoform P01116-2 G12V): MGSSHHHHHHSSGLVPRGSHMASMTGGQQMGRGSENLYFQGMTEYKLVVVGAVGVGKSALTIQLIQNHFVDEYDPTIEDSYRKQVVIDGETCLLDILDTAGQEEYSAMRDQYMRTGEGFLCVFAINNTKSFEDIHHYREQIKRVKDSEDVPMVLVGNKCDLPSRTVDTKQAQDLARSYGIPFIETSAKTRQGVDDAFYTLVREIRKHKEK
# T3 sequence (P01116 with tags, fused parts or gaps isoform P01116-2 G12C): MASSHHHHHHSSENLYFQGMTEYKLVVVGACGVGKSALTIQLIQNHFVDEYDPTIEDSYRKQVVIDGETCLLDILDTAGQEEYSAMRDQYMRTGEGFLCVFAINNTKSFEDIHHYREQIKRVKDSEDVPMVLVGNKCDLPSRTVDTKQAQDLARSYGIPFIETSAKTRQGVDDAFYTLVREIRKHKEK
# T1 sequence (P01116 with tags, fused parts or gaps isoform P01116-2 G12D): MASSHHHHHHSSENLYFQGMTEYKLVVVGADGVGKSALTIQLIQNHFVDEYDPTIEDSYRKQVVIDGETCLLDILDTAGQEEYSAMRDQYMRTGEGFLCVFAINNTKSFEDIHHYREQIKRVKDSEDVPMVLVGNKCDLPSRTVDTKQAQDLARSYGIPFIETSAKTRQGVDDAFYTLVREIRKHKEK
# T4 sequence (P01116 with tags, fused parts or gaps isoform P01116-2 G12V): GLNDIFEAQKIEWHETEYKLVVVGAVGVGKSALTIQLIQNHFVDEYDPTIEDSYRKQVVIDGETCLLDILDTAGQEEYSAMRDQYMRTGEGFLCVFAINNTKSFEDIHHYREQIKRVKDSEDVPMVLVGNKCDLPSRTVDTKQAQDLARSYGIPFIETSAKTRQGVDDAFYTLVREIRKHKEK
# HRAS, sequence (P01112 with tags, fused parts or gaps): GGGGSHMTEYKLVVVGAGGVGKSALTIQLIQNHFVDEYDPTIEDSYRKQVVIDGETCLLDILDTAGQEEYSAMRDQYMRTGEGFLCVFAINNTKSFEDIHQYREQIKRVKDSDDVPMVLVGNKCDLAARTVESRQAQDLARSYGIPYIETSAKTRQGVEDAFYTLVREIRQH
# T6 sequence (P01116 with tags, fused parts or gaps isoform P01116-2 G12D): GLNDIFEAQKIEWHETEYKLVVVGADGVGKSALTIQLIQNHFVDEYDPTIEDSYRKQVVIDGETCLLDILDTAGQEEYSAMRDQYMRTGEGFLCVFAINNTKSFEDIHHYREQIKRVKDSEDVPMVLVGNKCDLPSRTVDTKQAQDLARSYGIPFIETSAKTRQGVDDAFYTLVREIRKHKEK
# NRAS, sequence (P01111 with tags, fused parts or gaps): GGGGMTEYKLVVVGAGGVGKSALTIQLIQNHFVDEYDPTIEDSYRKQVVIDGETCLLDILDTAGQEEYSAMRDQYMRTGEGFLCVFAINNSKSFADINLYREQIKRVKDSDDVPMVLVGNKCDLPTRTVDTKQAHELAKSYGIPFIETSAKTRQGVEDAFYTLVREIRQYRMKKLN
# T5 sequence (P01116 with tags, fused parts or gaps isoform P01116-2 G13D): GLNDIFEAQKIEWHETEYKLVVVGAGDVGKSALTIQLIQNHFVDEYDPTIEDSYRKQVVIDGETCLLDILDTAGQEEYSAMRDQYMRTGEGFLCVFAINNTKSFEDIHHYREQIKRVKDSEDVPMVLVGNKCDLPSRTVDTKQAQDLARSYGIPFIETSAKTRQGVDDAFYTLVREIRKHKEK
# T7 sequence (P01116 with tags, fused parts or gaps isoform P01116-2 G12C/C51S/C80L/C118S): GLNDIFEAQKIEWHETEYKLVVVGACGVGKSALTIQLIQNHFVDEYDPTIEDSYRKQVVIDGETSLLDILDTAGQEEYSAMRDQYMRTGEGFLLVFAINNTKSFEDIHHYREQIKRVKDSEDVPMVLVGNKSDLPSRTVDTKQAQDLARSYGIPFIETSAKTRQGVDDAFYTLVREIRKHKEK
IC50 [1] [nM],IC50 [2] [nM],IC50 [3] [nM],Compound,IC50 [4] [nM],IC50 (KRAS-G12V) [nM],IC50 (KRAS-G13D) [nM],IC50 (KRAS-G12D) [nM],IC50 [5] [nM],IC50 [6] [nM],IC50 (NRAS) [nM],IC50 (HRAS) [nM]
4880,2230,1020,"N#Cc1c(N)sc2c(F)ccc(-c3c(Cl)cc4c(N5CCCOCC5)nc(OC[C@]5(CO)CC5(F)F)nc4c3F)c12 (single isomer, unassigned) [Ex. 33]",,,,,,,,
140,76.9,33.4,"N#Cc1c(N)sc2c(F)cc(F)c(-c3ncc4c(N5CCCOCC5)nc(OC[C@@]56CCCN5C[C@H](F)C6)nc4c3F)c12 [Ex. 23, 2-amino-5,7-difluoro-4-(8-fluoro-2-(((2R,7aS)-2-fluorotetrahydro-1H-pyrrolizin-7a(5H)-yl)methoxy)-4-(1,4-oxazepan-4-yl)pyrido[4,3-d]pyrimidin-7-yl)benzo[b]thiophene-3-carbonitrile]",,,,,,,,
3.43,1.67,1.8,"N#Cc1c(N)sc2c(F)ccc(-c3c(C(F)(F)F)cc4c(N5CCCOCC5)nc(OC[C@@]56CCCN5C[C@H](F)C6)nc4c3F)c12 [Ex. 34, 2-amino-7-fluoro-4-(8-fluoro-2-(((2R,7aS)-2-fluorotetrahydro-1H-pyrrolizin-7a(5H)-yl)methoxy)-4-(1,4-oxazepan-4-yl)-6-(trifluoromethyl)quinazolin-7-yl)benzo[b]thiophene-3-carbonitrile]",,,,,,,,
136,63.6,20.8,"C[C@H]1CCOCCN1c1nc(OC[C@@]23CCCN2C[C@H](F)C3)nc2c(F)c(-c3ccc(F)c4sc(N)c(C#N)c34)ncc12 [compound 21, 2-amino-7-fluoro-4-(8-fluoro-2-(((2R,7aS)-2-fluorotetrahydro-1H-pyrrolizin-7a(5H)-yl)methoxy)-4-((S)-5-methyl-1,4-oxazepan-4-yl)pyrido[4,3-d]pyrimidin-7-yl)benzo[b]thiophene-3-carbonitrile]",,,,,,,,
,,,"Cc1cc(N)nc(-c2c(Cl)cc3c(N4CCCOCC4)nc(OC[C@@]45CCCN4C[C@H](F)C5)nc3c2F)c1C(F)(F)F [compound 40, 6-(6-chloro-8-fluoro-2-(((2R,7aS)-2-fluorotetrahydro-1H-pyrrolizin-7a(5H)-yl)methoxy)-4-(1,4-oxazepan-4-yl)quinazolin-7-yl)-4-methyl-5-(trifluoromethyl)pyridin-2-amine]",807,78.2,204,351,83.3,628,> 11100,> 11100
,,,"Cc1cc(N)nc(-c2c(Cl)cc3c(N4CCCOCCC4)nc(OC[C@@]45CCCN4C[C@H](F)C5)nc3c2F)c1C(F)(F)F [compound 41, 6-(6-chloro-8-fluoro-2-(((2R,7aS)-2-fluorotetrahydro-1H-pyrrolizin-7a(5H)-yl)methoxy)-4-(1,5-oxazocan-5-yl)quinazolin-7-yl)-4-methyl-5-(trifluoromethyl)pyridin-2-amine]",348,46.4,75.5,125,56.5,512,> 11100,> 11100

Compound,IC50 [1] [nM],IC50 [2] [nM],IC50 [3] [nM],IC50 [4] [nM],IC50 (KRAS-G12V) [nM],IC50 (KRAS-G13D) [nM],IC50 (KRAS-G12D) [nM],IC50 [5] [nM],IC50 [6] [nM],IC50 (NRAS) [nM],IC50 (HRAS) [nM]
"N#Cc1c(N)sc2c(F)ccc(-c3c(Cl)cc4c(N5CCCOCC5)nc(OC[C@@]56CCCN5C[C@H](F)C6)nc4c3F)c12 (single isomer, unassigned) [Ex. 18]",5.34,2.91,2.81,,,,,,,,
